Earlier results on one molecule are cited in US20210212947A1, “Docetaxel palmitate liposome and preparation method thereof” (SHANGHAI WEI ER BIOPHARMACEUTICAL TECH CO., LTD., priority 2018, published 2021).

For data set [1] the following is noted: times that of paclitaxel.

Consider `CC(=O)OC12COC1CC(O)C1(C)C(=O)C(O)C3=C(C)C(OC(=O)C(O)C(NC(=O)OC(C)(C)C)c4ccccc4)CC(O)(C(OC(=O)c4ccccc4)C21)C3(C)C` (stereo not drawn) [Docetaxel, [2aR-(2aα,4β,4aβ,6β,9α(aR*,βS*),11a,12a,12aα,12bα)]-β-[[(1,1dimethylethyl (Oxy)carbonyl]amino]-α-hydroxyphenylpropionic acid [12b-acetoxy-12-benzoyloxy-2a,3,4,4a,5,6,9,10,11,12,12a,12b -Dodecahydro-4,6,11-trihydroxy-4a,8,13,13-tetramethyl-5-oxo-7,11-methylene-1H-cyclodecpentaeno [3,4]Benzo [1,2-b]oxetane-9-yl]ester], for which the “solubility in organic solvents” value (organic solvents such as ethanol, acetone, ether and benzene) is given as “soluble”. Also, the solubility in water result (water) is reported as “insoluble”. Further, the “anti-tumor activity relative to paclitaxel” value in data set [1] is 1.3-12 times.
